# Data taken from patent US20060280817A1, “Pharmaceutical composition useful for the treatment of hepatocellular carcinoma” (priority 2005, published 2006).
# Assays:
# KB = assay: In vitro cytotoxicity (SRB), KB; assay type: cell-based, human; conditions: 2 × 10^−5 M, 48 h
# Description: (§1) The human cancer cell lines procured from National Cancer Institute, Frederick, U.S.A or National Center for Cell Science; Pune, India. were used in present study. Cells were grown in tissue culture flasks in complete growth medium (RPMI-1640 medium with 2 mM glutamine, 100 μg/ml streptomycin, pH 7.4, sterilized by filtration and supplemented with 10% fetal calf serum and 100 units/ml penicillin before use) at 37° C. in an atmosphere of 5% CO2 and 90% relative humidity in a carbon dioxide incubator. The cells at subconfluent stage were harvested from the flask by treatment with trypsin (0.5% in PBS containing 0.02% EDTA) for determination of cytotoxicity. Cells with viability of more than 98% as determined by trypan blue exclusion were used for assay. […]
# (§2) A stock solutions of (20 mg/ml) of test material were prepared in distilled water. […] In vitro cytotoxicity against human cancer cell lines was determined (Monks, A., Scudiero, D., Skehan, P., Shoemaker R., Paull, K., Vistica, D., Hose, C., Langley, j., Cronise, P., Vaigro-Wolff, A., Gray-Goodrich, M., Campbell, H., Mayo, J and Boyd, M. (1991). Feasibility of a high-flux anticancer drug screen using a diverse panel of cultured human tumor cell lines. J. Natl. Cancer Inst. 83, 757-766.) using 96-well tissue culture plates. […] The optical density (OD) was recorded on ELISA reader at 540 nm. […]
# HCT 15 = assay: In vitro cytotoxicity (SRB), HCT 15; assay type: cell-based, human; conditions: 48 h
# Description: (§3) The human cancer cell lines procured from National Cancer Institute, Frederick, U.S.A or National Center for Cell Science; Pune, India. were used in present study. Cells were grown in tissue culture flasks in complete growth medium (RPMI-1640 medium with 2 mM glutamine, 100 μg/ml streptomycin, pH 7.4, sterilized by filtration and supplemented with 10% fetal calf serum and 100 units/ml penicillin before use) at 37° C. in an atmosphere of 5% CO2 and 90% relative humidity in a carbon dioxide incubator. The cells at subconfluent stage were harvested from the flask by treatment with trypsin (0.5% in PBS containing 0.02% EDTA) for determination of cytotoxicity. Cells with viability of more than 98% as determined by trypan blue exclusion were used for assay. The cell suspension of the required cell density was prepared in complete growth medium with gentamycin (50 μg/ml) for determination of cytotoxicity.
# (§4) A stock solutions of (20 mg/ml) of test material were prepared in distilled water. The stock solutions were serially diluted with complete growth medium containing 50 μg/ml of gentamycin to obtain working test solutions of required concentrations. In vitro cytotoxicity against human cancer cell lines was determined (Monks, A., Scudiero, D., Skehan, P., Shoemaker R., Paull, K., Vistica, D., Hose, C., Langley, j., Cronise, P., Vaigro-Wolff, A., Gray-Goodrich, M., Campbell, H., Mayo, J and Boyd, M. (1991). Feasibility of a high-flux anticancer drug screen using a diverse panel of cultured human tumor cell lines. J. Natl. Cancer Inst. 83, 757-766.) using 96-well tissue culture plates. The 100 μl of cell suspension was added to each well of the 96-well tissue culture plate. The cells were incubated for 24 hours. Test materials in complete growth medium (100 μl) were added after 24 hours incubation to the wells containing cell suspension. The plates were further incubated for 48 hours (at 37° C. in an atmosphere of […] 90% relative humidity in a carbon dioxide incubator) after addition of test material and then the cell growth was stopped by gently layering trichloroacetic acid (TCA, 50 μl, 50%) on top of the medium in all the wells. The plates were incubated at 4° C. for one hour to fix the cells attached to the bottom of the wells. The liquid of all the wells was gently pipetted out and discarded. The plates were washed five times with distilled water to remove TCA, growth medium low molecular weight metabolites, serum proteins etc and air-dried. Cell growth was measured by staining with sulforhodamine B dye (P. Skehan, R. Storeng, D. Scudiero, A. Monks, J. McMohan, D. Vistica, J. T. Warren, H. Bokesch, S. Kenney, M. R. Boyd (1990) New colorimetric cytotoxic Assay for Anticancer—Drug Screening Journal of the National Cancer Institute 82, 1107-1112). The adsorbed dye was dissolved in Tris-Buffer (100 μl, 0.01M, pH 10.4) and plates were gently stirred for 5 minutes on a mechanical stirrer. The optical density (OD) was recorded on ELISA reader at 540 nm.
# (§5) The cell growth was calculated by subtracting mean OD value of respective blank from the mean OD value of experimental set. Percent growth in presence of test material was calculated considering the growth in absence of any test material as 100% and in turn percent growth inhibition in presence of test material will be calculated.
# (§6) Methodology is the same as given in example 6 except for stock solutions of 1×10^−2M was prepared instead of 20 mg/ml.
# SK N SH = assay: In vitro cytotoxicity (SRB), SK N SH; assay type: cell-based, human; conditions: 48 h
# Description: as §3, §4, §5, §6
# MCF-7 = assay: In vitro cytotoxicity (SRB), MCF-7; assay type: cell-based; conditions: Homo sapiens, MCF7; MCF-7, 1 × 10^−5 M, 48 h; read-out: percent growth inhibition
# Description: as §1, §2
# SW 620 = assay: In vitro cytotoxicity (SRB), SW 620; assay type: cell-based, human; conditions: 48 h
# Description: as §3, §4, §5, §6
# ZR 75-1 = assay: In vitro cytotoxicity (SRB), ZR 75-1; assay type: cell-based; conditions: Homo sapiens; ZR 75-1, 1 × 10^−5 M, 48 h; read-out: percent growth inhibition
# Description: as §1, §2
# SNB 78 = assay: In vitro cytotoxicity (SRB), SNB 78; assay type: cell-based, human; conditions: SNB 78, 1 × 10^−5 M, 48 h
# Description: as §1, §2
# NIH OVCAR5 = assay: In vitro cytotoxicity (SRB), NIH OVCAR5; assay type: cell-based; conditions: Homo sapiens, OVCAR-5; NIH OVCAR5, 1 × 10^−5 M, 48 h; read-out: percent growth inhibition
# Description: as §1, §2
# IMR 32 = assay: In vitro cytotoxicity (SRB), IMR 32; assay type: cell-based, human; conditions: IMR 32, 1 × 10^−5 M, 48 h
# Description: as §1, §2
# T 47 D = assay: In vitro cytotoxicity (SRB), T 47 D; assay type: cell-based; conditions: Homo sapiens, T47D, 1 × 10^−5 M, 48 h, read-out: percent growth inhibition
# Description: as §1, §2
# HT 29 = assay: In vitro cytotoxicity (SRB), HT 29; assay type: cell-based, human; conditions: 48 h
# Description: as §3, §4, §5, §6
# SiHa = assay: In vitro cytotoxicity (SRB), SiHa; assay type: cell-based, human; conditions: 48 h
# Description: as §3, §4, §5, §6
# HOP-62 = assay: In vitro cytotoxicity (SRB), HOP-62; assay type: cell-based, human; conditions: 48 h
# Description: as §3, §4, §5, §6
# Colo 205 = assay: In vitro cytotoxicity (SRB), Colo 205; assay type: cell-based, human; conditions: 48 h
# Description: as §3, §4, §5, §6
# NCI-H23 = assay: In vitro cytotoxicity (SRB), NCI-H23; assay type: cell-based, human; conditions: NCI-H23, 1 × 10^−5 M, 48 h
# Description: as §1, §2
# NIH OVCAR 3 = assay: In vitro cytotoxicity (SRB), NIH OVCAR 3; assay type: cell-based, human; conditions: NIH OVCAR 3, 1 × 10^−5 M, 48 h
# Description: as §1, §2
# DU 145 = assay: In vitro cytotoxicity (SRB), DU 145; assay type: cell-based, human; conditions: DU 145, 1 × 10^−5 M, 48 h
# Description: as §1, §2
# A 549 = assay: In vitro cytotoxicity (SRB), A 549; assay type: cell-based, human; conditions: A 549, 1 × 10^−5 M, 48 h
# Description: as §1, §2
# SK N MC = assay: In vitro cytotoxicity (SRB), SK N MC; assay type: cell-based; conditions: Homo sapiens, 1 × 10^−5 M, 48 h, read-out: percent growth inhibition
# Description: as §1, §2
Compound,"percent growth inhibition (SW 620; SW 620, 1 × 10^−5 M) [%]",inhibition (NIH OVCAR5) [%],percent growth inhibition (IMR 32) [%],"percent growth inhibition (HT 29; HT 29, 1 × 10^−5 M) [%]",percent growth inhibition (SiHa; 1 × 10^−4 M) [%],percent growth inhibition (SiHa; 1 × 10^−5 M) [%],percent growth inhibition (SiHa; 1 × 10^−6 M) [%],"percent growth inhibition (SK N SH; SK N SH, 1 × 10^−5 M) [%]","percent growth inhibition (SK N SH; SK-NSH, 1 × 10^−4 M) [%]","percent growth inhibition (SK N SH; SK-NSH, 1 × 10^−6 M) [%]","percent growth inhibition (HOP-62; HOP-62, 1 × 10^−4 M) [%]","percent growth inhibition (HOP-62; HOP-62, 1 × 10^−5 M) [%]","percent growth inhibition (HOP-62; HOP-62, 1 × 10^−6 M) [%]","percent growth inhibition (SW 620; SW620, 1 × 10^−4 M) [%]","percent growth inhibition (SW 620; SW620, 1 × 10^−6 M) [%]","percent growth inhibition (Colo 205; Colo-205, 1 × 10^−4 M) [%]","percent growth inhibition (Colo 205; Colo-205, 1 × 10^−5 M) [%]","percent growth inhibition (Colo 205; Colo-205, 1 × 10^−6 M) [%]","percent growth inhibition (HCT 15; HCT-15, 1 × 10^−4 M) [%]","percent growth inhibition (HCT 15; HCT-15, 1 × 10^−5 M) [%]",also measured
"O=c1[nH]cc(F)c(=O)[nH]1 [5-Flurouracil, reference compound]",–,–,–,–,–,–,–,–,–,–,–,–,–,–,–,–,–,–,–,–,"percent growth inhibition (KB): 9%; percent growth inhibition (HCT 15; HCT 15, 2 × 10^−5 M): 50%"
COc1cccc2c1C(=O)c1c(O)c3c(c(O)c1C2=O)C[C@@](O)(C(=O)CO)C[C@@H]3O[C@H]1C[C@H](N)[C@H](O)[C@H](C)O1 [Adriamycin],59,45,87,69,–,–,–,–,–,–,–,–,–,–,–,–,–,–,–,–,"inhibition at 10 µM (SK N SH; Homo sapiens, SK N SH, 1 × 10^−5 M, read-out: percent growth inhibition): 82%; inhibition (MCF-7): 72%; inhibition (ZR 75-1): 46%; percent growth inhibition (SNB 78): 20%; inhibition (T 47 D): 34%"
O=C1C[C@@H](c2ccc(O)c(O[C@@H]3O[C@H](CO)[C@@H](O)[C@H](O)[C@H]3O)c2)Oc2cc(O[C@@H]3O[C@H](CO)[C@@H](O)[C@H](O)[C@H]3O)ccc21 [Butrin],0,–,–,11,80,0,0,8,83,9,65,6,0,92,0,40,0,0,98,26,"percent growth inhibition (HCT 15; HCT-15, 1 × 10^−6 M): 0%; percent growth inhibition (HT 29; HT-29, 1 × 10^−4 M): 99%; percent growth inhibition (HT 29; HT-29, 1 × 10^−6 M): 9%"
O=C(/C=C/c1ccc(O)c(O[C@@H]2O[C@H](CO)[C@@H](O)[C@H](O)[C@H]2O)c1)c1ccc(O[C@@H]2O[C@H](CO)[C@@H](O)[C@H](O)[C@H]2O)cc1O [Isobutrin],0,–,–,10,50,0,0,25,93,0,65,0,0,85,0,74,0,0,99,21,"percent growth inhibition (HCT 15; HCT-15, 1 × 10^−6 M): 0%; percent growth inhibition (HT 29; HT-29, 1 × 10^−4 M): 94%; percent growth inhibition (HT 29; HT-29, 1 × 10^−6 M): 0%"
CO[C@@]12[C@H](COC(N)=O)C3=C(C(=O)C(C)=C(N)C3=O)N1C[C@@H]1N[C@@H]12 [Mitomycin C],–,–,83,–,–,–,–,–,–,–,–,–,–,–,–,–,–,–,–,–,percent growth inhibition (NCI-H23): 59%; percent growth inhibition (NIH OVCAR 3): 31%; percent growth inhibition (DU 145): 69%
CC/C(=C(\c1ccccc1)c1ccc(OCCN(C)C)cc1)c1ccccc1 [Tamoxifen],–,20,–,–,–,–,–,–,–,–,–,–,–,–,–,–,–,–,–,–,percent growth inhibition (A 549): 17%; inhibition (SK N MC): 27%
